The values below come from paper PMC10218704, “A Novel Blood–Brain Barrier-Penetrating and Vascular-Targeting Chimeric Peptide Inhibits Glioma Angiogenesis” (International Journal of Molecular Sciences, 2023).

Ends that are not written are not given here.

The test system of assay [1] is intracranial U87-mCherry-luc glioma. Description: In vivo anti-glioma study (bioluminescence). Details: species or system nude mice. To be noted: 20 mg/kg/day i.v. (tail vein), 11 days; days 4, 7, 11, 14; n = 5. The protocol: The orthotopic U87-mCherry-luc glioma-bearing nude mice were randomly assigned to 6 groups (n = 5) according to the bioluminescence intensity of glioma measured on day 4. […] The bioluminescence intensity was measured on days 4, 7, 11, and 14, respectively. Nude mice were weighed daily. On day 15, the mice were sacrificed, and the glioma-bearing brains were harvested. The brain tissues were fixed with 4.0% paraformaldehyde, embedded in paraffin, and cut into slices. The TUNEL staining and CD31 immunohistochemical staining were conducted according to standard histological procedures.

The subject of assay [2] is zebrafish embryo intersegmental vessel. Description: Zebrafish embryo intersegmental vessel angiogenesis. It counts as in vivo. To be noted: 25 µmol/L; 24 h; 28 °C; fluorescence microscope; vs control; n = 3. The protocol: After a certain period, healthy, sexually mature female and male zebrafish were mated in a 1:1 ratio. After 24 h, the fertilized eggs were removed, disinfected, and washed, and then placed in embryo culture water and cultured in an incubator at 28 °C for 24 h. The fertilized eggs were washed with chain enzyme protease E solution (1 mg/mL) to remove the egg membrane on the surface and placed under a microscope to observe and select the normally developing zebrafish embryos, and then placed into a 24-well plate. […] The control group was added with the same volume of embryo culture water, and then placed in an incubator at 28 °C for 24 h. Zebrafish embryos were randomly removed from each group and observed under a fluorescence microscope. The total length of zebrafish internode vessels was calculated and counted.

A further assay concerns NRP-1. Details: method as in 2 sources, ref 30 = [30]; PMID 33209022; doi:10.2147/IJN.S270208; 30. Lu L. Chen H. Wang L. Zhao L. Cheng Y. Wang A. Wang F. Zhang X. A Dual Receptor Targeting- and BBB Penetrating- Peptide Functionalized Polyethyleneimine Nanocomplex for Secretory Endostatin Gene D ||| ref 19-22 = [19]; PMID 10747021; doi:10.1093/emboj/19.7.1525; 19. Binétruy-Tournaire R. Demangel C. Malavaud B. Vassy R. Rouyre S. Kraemer M. Plouët J. Derbin C. Perret G. Mazié J.C. Identification of a peptide blocking vascular endothelial growth factor (VEGF)- || [20]; PMID 16959272; doi:10.1016/j.lfs.2006.08.005; 20. Starzec A. Vassy R. Martin A. Lecouvey M. Di Benedetto M. Crépin M. Perret G.Y. Antiangiogenic and antitumor activities of peptide inhibiting the vascular endothelial growth factor binding to neur || [21]; PMID 17983687; doi:10.1016/j.peptides.2007.09.013; 21. Starzec A. Ladam P. Vassy R. Badache S. Bouchemal N. Navaza A. du Penhoat C.H. Perret G.Y. Structure-function analysis of the antiangiogenic ATWLPPR peptide inhibiting VEGF (165) binding to neurop || [22]; PMID 27693752; doi:10.1016/j.jconrel.2016.09.035; 22. Ying M. Shen Q. Zhan C. Wei X. Gao J. Xie C. Yao B. Lu W. A stabilized peptide ligand for multifunctional glioma targeted drug delivery J. Control. Release 2016 243 86 98 10.1016/j.jconrel.2016.09. To be noted: cited from earlier work. An excerpt:
(§1) ATWLPPR (AT7), which was identified by a mutated phage lib ... || Intracranial delivery of therapeutic agents is primarily hindered by the BBB [24]. The intercellular tight junction caused by the BBB restricts the passive diffusion of almost all large-molecule and more than 98% of small-molecule drugs from peripheral blood circulation to the brain tissue.

In another assay the test system is VEGFR-2. Details: method as in 2 sources, ref 30 = [30]; PMID 33209022; doi:10.2147/IJN.S270208; 30. Lu L. Chen H. Wang L. Zhao L. Cheng Y. Wang A. Wang F. Zhang X. A Dual Receptor Targeting- and BBB Penetrating- Peptide Functionalized Polyethyleneimine Nanocomplex for Secretory Endostatin Gene D ||| ref 19-22 = [19]; PMID 10747021; doi:10.1093/emboj/19.7.1525; 19. Binétruy-Tournaire R. Demangel C. Malavaud B. Vassy R. Rouyre S. Kraemer M. Plouët J. Derbin C. Perret G. Mazié J.C. Identification of a peptide blocking vascular endothelial growth factor (VEGF)- || [20]; PMID 16959272; doi:10.1016/j.lfs.2006.08.005; 20. Starzec A. Vassy R. Martin A. Lecouvey M. Di Benedetto M. Crépin M. Perret G.Y. Antiangiogenic and antitumor activities of peptide inhibiting the vascular endothelial growth factor binding to neur || [21]; PMID 17983687; doi:10.1016/j.peptides.2007.09.013; 21. Starzec A. Ladam P. Vassy R. Badache S. Bouchemal N. Navaza A. du Penhoat C.H. Perret G.Y. Structure-function analysis of the antiangiogenic ATWLPPR peptide inhibiting VEGF (165) binding to neurop || [22]; PMID 27693752; doi:10.1016/j.jconrel.2016.09.035; 22. Ying M. Shen Q. Zhan C. Wei X. Gao J. Xie C. Yao B. Lu W. A stabilized peptide ligand for multifunctional glioma targeted drug delivery J. Control. Release 2016 243 86 98 10.1016/j.jconrel.2016.09. The conditions noted are these: cited from earlier work.
Text: as §1

The next assay relates to HUVECs. The experiment in a line: Annexin V-FITC/PI staining, flow cytometry (apoptosis). It counts as cell-based, human. To be noted: 320 μmol/L, 24 h; for induction of apoptosis: Hoechst and Annexin V-FITC/PI staining; for total apoptotic rate (Q1-UR and Q1-LR): mean ± SD, n = 3, control (7.17 ± 1.42)%. The procedure:
HUVECs were seeded into 6-well culture plates (3 × 10^5 cells/well). […] After discarding the supernatant and washing with cold PBS, the cells were fixed in 4% paraformaldehyde and stained with Hoechst 33,258 for 10 min. Then, the cells were washed with cold PBS and observed using an inverted fluorescence microscope. HUVECs were treated with different peptides (the methods were the same as the Hoechst staining). After 24 h, cells were collected by trypsin digestion and washed with PBS. Annexin V-FITC/PI staining was conducted according to the manufacturer’s instructions for the Apoptosis Detection Kit. Briefly, 195 μL of Annexin V-FITC/PI dilution buffer was added to resuspend the cells. Then, 5 μL of Annexin V-FITC and 10 μL of PI staining solutions were added and gently mixed with the cells. After incubation at room temperature in the dark for 10 min, the apoptotic cells were detected by flow cytometry.
For orientation: A flow cytometer gives signals particle by particle.

With `CC(C)C[C@H](NC(=O)[C@H](Cc1c[nH]c2ccccc12)NC(=O)[C@@H](NC(=O)[C@H](C)NC(=O)[C@H](CS)NC(=O)[C@H](CCCNC(=N)N)NC(=O)[C@H](CCCNC(=N)N)NC(=O)[C@H](CCCNC(=N)N)NC(=O)[C@H](CCC(N)=O)NC(=O)[C@H](CCCNC(=N)N)NC(=O)[C@H](CCCNC(=N)N)NC(=O)[C@H](CCCCN)NC(=O)[C@H](CCCCN)NC(=O)[C@@H](N)CCCNC(=N)N)[C@@H](C)O)C(=O)N1CCC[C@H]1C(=O)N1CCC[C@H]1C(=O)N[C@@H](CCCNC(=N)N)C(=O)O` [TAT-AT7], the “glioma growth (bioluminescence)” value in assay [1] is “significantly suppressed glioma growth on days 11 and 14”. In assay [2], the intersegmental vascular growth result is reported as “significantly inhibit the generation of the zebrafish embryo intersegmental vessel”. Besides, the “affinity to NRP-1” value in the assay on NRP-1 (compared with TAT or AT7 alone) is “higher affinity to VEGFR-2 and NRP-1”. In the assay with VEGFR-2 (compared with TAT or AT7 alone), the “affinity to VEGFR-2” value is “higher affinity to VEGFR-2 and NRP-1”. For the same molecule, in the assay with HUVECs, the “induction of apoptosis” value was “strongly induced HUVECs’ apoptosis”; the “total apoptotic rate (Q1-UR and Q1-LR)” value amounted to 29.56 ± 3.07%.
For ATWLPPR [AT7, ATWLPPR], the “glioma growth (bioluminescence)” value in assay [1] is reported as “no significant difference compared to the control group”. Moreover, the intersegmental vascular growth entry in assay [2] is reported as “no obvious effect on intersegmental vascular growth”. In the assay on NRP-1, the “binding to NRP-1” value is “able to bind to VEGFR-2 and NRP-1”. Besides, in the assay on VEGFR-2, the “binding to VEGFR-2” value is “able to bind to VEGFR-2 and NRP-1”. Moreover, in the assay with HUVECs, the “induction of apoptosis” value is recorded as “no obvious effect of promoting apoptosis”; the “total apoptotic rate (Q1-UR and Q1-LR)” value is 7.80 ± 1.50%.
